Results as given in patent US11939294B1 (priority 2023, dated 2024).

How the values were obtained:
[1] = tested on: Mycobacterium tuberculosis H37Rv (susceptible; ATCC: 25177); test: Resazurin Microplate Assay (REMA), anti-tubercular activity, susceptible strain; format: cell-based; conditions: 192 h, read-out: MIC (μg/mL) Susceptible (H37Rv), H37Rv, ATCC: 25177, 8 days incubation at 37° C.

Row | SMILES | melting point | MIC [1]
1 | Cc1cc(C)c[n+](CC(=O)c2ccc(Br)cc2)c1.[Br-] | 210 °C | –
2 | Cc1cc(C)c[n+](CC(=O)c2ccc(Cl)cc2)c1.[Br-] | 125 °C | –
3 | COc1ccc(C(=O)C[n+]2cc(C)cc(C)c2)cc1.[Br-] | 108 °C | –
4 | Cc1cc(C)c[n+](CC(=O)c2ccc(F)cc2)c1.[Br-] [Compound 3d, 1-(2-(4-Fluorophenyl)-2-oxoethyl)-3,5-dimethylpyridin-1-ium bromide] | 123 °C | ~8 µg/mL
